Test results as given in patent publication US20220389077A1, “ALLOGENEIC CELL COMPOSITIONS AND METHODS OF USE” (Poseida Therapeutics, Inc., priority 2018, published 2022).
Read-outs that look alike come from different tables or passages of the source.

T1: human CD58 (human, UniProt P19256 29-250)
T1 construct: whole, on cells
T1 sequence (looked up): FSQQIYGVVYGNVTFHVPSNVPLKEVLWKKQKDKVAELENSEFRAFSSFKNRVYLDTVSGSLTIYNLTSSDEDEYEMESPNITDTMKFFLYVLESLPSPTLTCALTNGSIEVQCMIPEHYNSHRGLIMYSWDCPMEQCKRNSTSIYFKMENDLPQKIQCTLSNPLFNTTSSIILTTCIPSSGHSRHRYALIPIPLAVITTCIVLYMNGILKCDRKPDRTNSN

B1: CSR CD2z (chimeric stimulatory receptor: CD2 extracellular, transmembrane and cytoplasmic domains fused to the CD3z intracellular domain) (receptor)
chain: KEITNALETWGALGQDINLDIPSFQMSDDIDDIKWEKTSDKKKIAQFRKEKETFKEKDTYKLFKNGTLKIKHLKTDDQDIYKVSIYDTKGKNVLEKIFDLKIQERVSKPKISWTCINTTLTCEVMNGTDPELNLYQDGKHLKLSQRVITHKWTTSLSAKFKCTAGNKVSKESSVEPVSCPEKGLDIYLIIGICGGGSLLMVFVALLVFYITKRKKQRSRRNDEELETRAHRVATEERGRKPHQIPASTPQNPATSQHPPPPPGHRSQAPSHRPPPPGHRVQHQPQKRPPAPSGTQVHQQKGPPLPRPRVQPKPPHGAAENSLSPSSNRVKFSRSADAPAYKQGQNQLYNELNLGRREEYDVLDKRRGRDPEMGGKPRRKNPQEGLYNELQKDKMAEAYSEIGMKGERRRGKGHDGLYQGLSTATKDTYDALHMQALPPR
notes: Expressed from mRNA on the surface of primary human T cells (degranulation assays) or K562 cells (staining); also called CSR WT CD2z; WT CD2z CSR

Key:
[1] = test system: cells; experiment: AP1903 amount needed in vitro for effective signaling of cells; assay type: cell-based; details: 1600 Da MW
Method: The fixed dose of AP1903 for injection used, for example, may be 0.4 mg/kg intravenously infused over 2 hours. The amount of AP1903 needed in vitro for effective signaling of cells is 10-100 nM (1600 Da MW). This equates to 16-160 μg/L or ^˜0.016-1.6 μg/kg (1.6-160 μg/kg). Doses up to 1 mg/kg were well-tolerated in the Phase I study of AP1903 described above. Therefore, 0.4 mg/kg may be a safe and effective dose of AP1903 for this Phase I study in combination with the therapeutic cells.

[2] = test system: cells; details: cited from earlier work
[3] = cited from earlier work
[4] = biological target: T1, human CD58; experiment: inferred from T-cell degranulation (CD107a) against K562/Rat2 cells overexpressing human CD58
Method: FIG. 23D is a series of flow cytometry plots showing the expression of CD48, CD58 or CD59 on K562 and Rat2 cells. To confirm possible ligands for the CSR WT CD2z molecule, a panel of known and suspected ligands including human CD48, CD58, and CD59 were tested. Degranulation of engineered T cells was evaluated against the cell lines K562 and Rat2 that were made to overexpress the target ligands and confirmed for expression by FACS staining. Red histograms are unstained cells and blue histograms are cells that were electroporated/lipofected with mRNA and then stained for expression of the respective marker by FACS.
FIG. 23E is a bar graph showing that CSR CD2z recognizes human CD58, but not CD48 or CD59. To confirm possible ligands for the CSR WT CD2z molecule, a panel of known and suspected ligands including human CD48, CD58, and CD59 were tested. Degranulation of engineered T cells was evaluated against the cell lines K562 and Rat2 that were made to overexpress the target ligands and confirmed for expression by FACS staining. Cells were electroporated/lipofected with mRNA and then stained for expression of the respective marker by FACS. […] T cell degranulation is a surrogate of T cell killing that can be measured by FACS staining for intracellular CD107a expression following coculture with target cell lines expressing target antigen. […]

binding result [4] | Molecule | amount needed for effective signaling, converted [1] [µg/L] | amount needed in vitro for effective signaling of cells [2] [nM] | plasma levels versus dose ([3]; 0.01, 0.05, 0.1, 0.5 and 1.0 mg/kg) | mean Cmax ([3]; 0.01-1.0 mg/kg dose range, IV over 2 hours) [ng/mL] | plasma level as % of maximal concentration ([3]; 0.5 hours post-dose) | plasma level as % of maximal concentration ([3]; 2 hours post-dose) [%] | plasma level as % of maximal concentration ([3]; 10 hours post-dose) [%] | well-tolerated doses ([3]; Phase I study)
– | CC[C@H](C(=O)N1CCCC[C@H]1C(=O)O[C@H](CCc1ccc(OC)c(OC)c1)c1cccc(OCC(=O)NCCNC(=O)COc2cccc([C@@H](CCc3ccc(OC)c(OC)c3)OC(=O)[C@@H]3CCCCN3C(=O)[C@@H](CC)c3cc(OC)c(OC)c(OC)c3)c2)c1)c1cc(OC)c(OC)c(OC)c1 (relative stereo) [AP1903, 2-Piperidinecarboxylic acid, 1-[(2S)-1-oxo-2-(3,4,5-trimethoxyphenyl)butyl]-, 1,2-ethanediylbis[imino(2-oxo-2,1-ethanediyl)oxy-3,1-phenylene[(1R)-3-(3,4-dimethoxyphenyl)propylidene]]ester, [2S-[1(R*),2R*[S*[S*[1(R*),2R*]]]]]-(9Cl)] | 16 to 160 | 10 to 100 | directly proportional to dose | 10 to 1275 | approximately 18% | ~7 | ~1 | up to 1 mg/kg
binds | B1 | – | – | – | – | – | – | – | –
